According to patent publication US12171732B2, “Compositions and use of N-chlorotaurine for treatment and prevention of respiratory infections” (priority 2021, dated 2024):
Like-named read-outs stand apart in the source and are kept apart here.

How the values were obtained:
[1] = system: SARS-CoV-2 B.1.1.7 (Alpha); type: cell-based; conditions: 1% NCT, 37° C.
[2] = system: SARS-CoV-2; type: in vivo, human; conditions: Example 3 patient, Day 5, first 1% NCT nasal spray, 2 puffs in each nostril
[3] = system: SARS-CoV-2 B.1.351 (Beta); type: cell-based; conditions: 1% NCT, 37° C.

O=S(=O)(O)CCNCl [NCT, N-chlorotaurine]
reduction of infected cells ([1]; after 1 min): 42-54% | reduction of infected cells ([1]; after 5 min): 50-71% | reduction of infected cells ([1]; after 10 min): 62-99% | reduction of infected cells ([1]; after 20 min): 99-100% | reduction of infected cells ([1]; after 30 min): 100% | time until nasal passages cleared and nasal secretion dried up [2]: ≤ 30 min | reduction of infected cells ([3]; after 1 min (not significant, p=0.313)): 0-48% | reduction of infected cells ([3]; after 5 min): 54-72% | reduction of infected cells ([3]; after 10 min): 82-97% | reduction of infected cells ([3]; after 20 min): 99-100% | reduction of infected cells ([3]; after 30 min): 100%
